Assay results from PubChem BioAssay (NCI).
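48-hour exposure; five concentrations; linearly interpolated endpoints. The concentration for 50% growth inhibition is given as GI50. At the TGI there is no net growth.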

Assays:
Test in all cases: DTP human tumour cell line panel, 48 h
SW-620 colon = tested on: SW-620 colon
SNB-19 CNS = tested on: SNB-19 CNS
SK-MEL-28 melanoma = tested on: SK-MEL-28 melanoma
NCI-H522 lung = tested on: NCI-H522 lung
HCT-116 colon = tested on: HCT-116 colon
OVCAR-4 ovarian = tested on: OVCAR-4 ovarian
MDA-MB-435 = tested on: MDA-MB-435
SF-268 CNS = tested on: SF-268 CNS
HT29 colon = tested on: HT29 colon
MOLT-4 leukemia = tested on: MOLT-4 leukemia

Structure (SMILES) | GI50 (SW-620 colon) | TGI (SW-620 colon) | GI50 (SNB-19 CNS) | TGI (SNB-19 CNS) | GI50 (SK-MEL-28 melanoma) | TGI (SK-MEL-28 melanoma) | GI50 (NCI-H522 lung) | TGI (NCI-H522 lung) | GI50 (HCT-116 colon) | TGI (HCT-116 colon) | GI50 (OVCAR-4 ovarian) | TGI (OVCAR-4 ovarian) | GI50 (MDA-MB-435) | TGI (MDA-MB-435) | GI50 (SF-268 CNS) | TGI (SF-268 CNS) | GI50 (HT29 colon) | TGI (HT29 colon) | GI50 (MOLT-4 leukemia) | TGI (MOLT-4 leukemia)
C/C1=C/C(=O)O[C@@H]2C[C@@H](CC[C@H](C)/C=C\C=C\CC1)O[C@@](O)([C@@H]1CSC(=O)N1CO)C2 | 12.6 µM | 30 µM | 0.0833 µM | 0.671 µM | 0.164 µM | 0.603 µM | 37.1 nM | 2.84 µM | 0.194 µM | 20 µM | 0.176 µM | 20.4 µM | 290 nM | > 88.6 µM | 0.0418 µM | 0.198 µM | 56.2 nM | 20.3 µM | 3.42 µM | > 51.8 µM
Cc1nc2ccccn2c1NC(=O)NNC(=S)Nc1ccc(Br)cc1 | 39.8 µM | > 100 µM | 39.1 µM | > 100 µM | 33 µM | 94 µM | 30100 nM | 79.1 µM | 22.9 µM | 62.9 µM | 66.2 µM | > 100 µM | 29300 nM | 70.6 µM | 67.9 µM | > 100 µM | 24900 nM | 69.8 µM | 36.7 µM | > 100 µM
COc1ccc(-c2nsc3c2NC(=O)CC3c2ccc(F)cc2)cc1 (stereo not given) | 2.77 µM | > 100 µM | 7.75 µM | > 100 µM | 4.74 µM | > 100 µM | 2520 nM | 15.6 µM | 3.95 µM | > 100 µM | 12.7 µM | > 100 µM | 513 nM | 2.43 µM | 10.2 µM | > 100 µM | 2840 nM | 27.6 µM | 0.577 µM | > 100 µM
